From US20180237745A1, “METHOD FOR CONTROLLING DIFFERENTIATION OF STEM CELLS” (GUANGZHOU INSTITUTES OF BIOMEDICINE AND HEALTH, CHINESE …, priority 2015, published 2018) come the findings set out here.

The test system of experiment [1] is human H1 ES cells. As for the experimental part: Undifferentiated human H1 ES cells were maintained in monolayer culture on Matrigel (BD Biosciences, 354277) in mTeSR1 medium (Stemcell Technologies, 05850) at 37° C. with 5% CO2. Cells were manually passaged at 1:4 to 1:6 split ratios every 3 to 5 days. For hepatic differentiation, we established a serum-free protocol based on previously described protocols with minor modifications^8, 9. Briefly, H1 cells were cultured for 3 days in RPMI/B27 medium (Insulin minus, Gibco, A18956-01) supplemented with 100 ng/ml Activin A (Peprotech, A120-14E), followed by 4 days with 20 ng/ml BMP2 (Peprotech, 120-02) and 30 ng/ml FGF-4 (Peprotech, 100-31) in RPMI/B27 (complete with Insulin, Gibco, 17504-044) medium, then 6 days with 20 ng/ml HGF (Peprotech, 100-39) and KGF (Peprotech, 100-19) in RPMI/B27 (complete with Insulin), then 8 days with 20 ng/ml Oncostatin-M (R&D Systems, 295-OM/CF) in Hepatocyte Culture Media (Lonza, cc-3198) supplemented with SingleQuots (without EGF). Immunofluorescence staining.
Single cell qPCR was performed using a Fluidigm C1 and BioMark HD as described by the manufacturer. Briefly, a cell suspension of a concentration of 166˜250 K/mL was loaded into a 10-17 μm C1™ Single-Cell Auto Prep IFC chamber (Fluidigm, PN100-5479), and cell capture was performed on the Fluidigm C1™ System. Both the empty wells and doublet-occupied wells were excluded from further analysis. Upon capture, reverse transcription and cDNA pre-amplification were performed using the Ambion Single Cell-to-CT Kit (Life Technologies, PN 4458237) and C1™ Single-Cell Auto Prep Module 2 Kit (Fluidigm, PN100-5519). The pre-amplified products were diluted 10-fold prior to analysis with TaqMan® Gene Expression Master Mix (Life Technologies, 4369016) and inventoried TaqMan® Gene Expression assays (20×, Applied Biosystems) in 96.96 dynamic Arrays™ on a BioMark System (Fluidigm). Inventoried TaqMan primers were used for single-cell qPCR. Relative expression was calculated as described in Buganim et al., 2012^22 except that a Ct value of 25 was used for low expressed genes. Relational network plots (mdsquish) were implemented as part of glbase^21 and will be described in detail elsewhere. Briefly, the normalized Euclidean distance between all cells was measured for singular value decomposed principal components 2, 3, 4 and 5. A network was then constructed using a threshold of 0.92 for weak links (dotted lines) and 0.99 for strong links (solid lines) with a maximum of the 50 best scoring edges per node, the network was then laid out using graphviz ‘neato’ layout. Node sizes are 2^[relative expression].
Culturing condition during differentiation is as follows. Nearly 50% confluent undifferentiated human H1 ES cells obtained from ATCC were passaged by Accutase 24 hr after seeding, cells were almost 90% confluent at 37° C. with 5% CO2. Then H1 cells were cultured for 3 days in RPMI/B27 medium (Insulin minus) supplemented with 100 ng/ml Activin A in the presence of 2 μM Repsox or not.
TGFβ-signaling inhibitor RepSox was added with a final concentration of 2 μM at day 0 from the start of differentiation of hESCs.
Expression of various markers of definite layer type cells, i.e., SOX1/PAX6 (ectoderm markers), GATA2/BMP4 (mesoderm markers), and SOX17/FOXA2 (endoderm markers) were tested during differentiation to evaluate the differentiated cells.

Experiment [2] deals with human H1 ES cells. The experiment in a line: Bulk real-time qRT-PCR of marker genes in Activin A induced hESCs. Type of experiment: cell-based. As for the experimental part: Immunofluorescence staining.
Total RNA was extracted using the Trizol reagent (MRC, TR1187) and 2 μg of total RNA was reverse-transcribed using the ReverTraAce Kit (TOYOBO, 34520B1). The product (cDNA) was properly diluted and used as PCR template. PCR reactions were performed with the SYBR®Premix Ex Taq™ Kit (TAKARA, RR420A) on the CFX96 Touch™ Real-Time PCR Detection System (Bio-Rad). GAPDH was used as the internal control. Three to four biological replicates were performed for each assay and data represents mean±SD.
Culturing condition during differentiation is as follows.
(In general: Real-time PCR tracks product formation cycle by cycle.)

Another experiment has as its system H1-derived cells. Particulars: day 3 cells induced by Activin A in the presence of RepSox, compared to DE cells. The text has this:
Scratch assay was used to determine the migration activity of H1-derived cells. Briefly, cells in a confluent monolayer were scratched with a needle to form a cell-free zone into which cells at the edges of the wound can migrate. The denuded area was imaged to measure the boundary of the wound at pre-migration. Images of cell movement were captured at regular intervals within a 24-48 hr period for data analysis.

The next experiment concerns TGFβ. The experiment in a line: ELISA of TGFβ protein in Activin A stimulated H1 cell culture media. The note with it: day 3 cells, Activin A (FIG. 4A). The class given is cell-based, human. As for the experimental part:
The protein level of TGFβ in the Activin A stimulated H1 cell culture media was determined with an ELISA Kit (R&D Systems, DB100B) as described by the manufacturer.

Consider `Cc1cccc(-c2[nH]ncc2-c2ccc3ncccc3n2)n1` [RepSox], for which the endoderm marker expression entry in the experiment with human H1 ES cells [1] (Example 1: 100 ng/ml Activin A, 2 μM RepSox, 3 days (FIG. 4B-E)) is reported as “no endoderm marker is expressed”. Besides, the “ectodermal markers SOX1 and PAX6” value in the experiment on human H1 ES cells [1] (RepSox treated cells, day 3 (FIG. 4C)) is reported as “slightly induced”. In addition, the “EMT and formation of DE” value in the experiment on human H1 ES cells [1] (day 3, Activin A treated hESCs, RepSox added, single cell-qPCR (FIG. 4C)) is on record as “not only blocked the EMT but also the formation of DE”. Besides, the “expression of POU5F1 and NANOG” value in the experiment with human H1 ES cells [1] (day 3 Activin A cells treated with RepSox (FIG. 4C)) was “continued to express POU5F1 and NANOG”. The “expression of CDH1 and SOX2” value in the experiment with human H1 ES cells [1] (day 3 Activin A cells treated with RepSox, compared with hESCs (FIG. 4C)) is “maintained the expression of CDH1 and SOX2 at the same level as hESCs”. In addition, the “induction of SOX17 expression” value with human H1 ES cells [1] (day 3 Activin A-treated cells (FIG. 4C)) is reported as “blocked its induction completely”. In the experiment with human H1 ES cells [2] (qRT-PCR (FIG. 4D)), the “expression of CDH1” value is “maintaining the expression of CDH1”; the “expression of CDH2, SNAI1, SNAI2, ZEB1, KLF8 and VIM” value is on record as “blocked the expression”; the “expression of mesendoderm/endoderm markers GSC, EOMES, MIXL1, SOX17, FOXA2, GATA4, GATA6, HHEX and LGR5” value is on record as “blocked the expression of mesendoderm/endoderm markers”; the “other lineage markers PAX6, GATA2, BMP4 and GATA3” value is listed as “mildly up-regulated”. Besides, the “migration ability of day 3 cells” value in the experiment with H1-derived cells is “less motile”.

B1: Activin A (protein, UniProt P08476 311-426, looked up)
Inhibin beta A chain: GLECDGKVNICCKKQFFVSFKDIGWNDWIIAPSGYHANYCEGECPSHIAGTSGSSLSFHSTVINHYRMRGHSPFANLKSCCVPTKLRPMSMLYYDDGQNIIKKDIQNMIVEECGCS
modifications: Inhibin beta A chain
notes: growth factor (Peprotech) used to induce definitive endoderm differentiation of hESCs
Take B1: the TGFB1 gene expression result with human H1 ES cells [2] (qRT-PCR, day 3 (FIG. 6)) is given as “robust activation”. For the same molecule, the “TGFβ protein in the culture media” value with TGFβ was found to be 1.5 ng/mL.
